From PMC3335822 (PLoS ONE, 2012)

How the values were obtained:
Eya3(ED) = target: T1, Eya3(ED) (Mus musculus, UniProt P97480); assay: pNPP hydrolysis by the catalytic domain of Eya3; type: biochemical
T1 construct: The catalytic domain (ED) of mouse Eyes Absent 3 (Eya3(223–510)) was purified; made in house
T1 sequence (P97480 223-510): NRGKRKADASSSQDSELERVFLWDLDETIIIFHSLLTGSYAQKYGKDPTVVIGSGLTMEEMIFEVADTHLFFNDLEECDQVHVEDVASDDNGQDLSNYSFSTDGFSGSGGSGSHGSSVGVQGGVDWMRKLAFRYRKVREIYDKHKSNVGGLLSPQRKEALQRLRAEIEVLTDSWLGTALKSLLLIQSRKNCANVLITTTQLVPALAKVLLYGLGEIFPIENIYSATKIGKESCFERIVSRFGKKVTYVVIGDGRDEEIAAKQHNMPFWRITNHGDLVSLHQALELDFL
Text: The catalytic domain (ED) of mouse Eyes Absent 3 (Eya3(223–510)) was purified as described before. Human Eyes Absent 3 isoform 2 (representing the major species identified in human cell lines by mass spectrometry and residues 127–573 of NM_001990, isoform 1) was sub-cloned into pDEST565 to express a poly-histidine- Glutathione-S-transferase (His-GST) tagged fusion protein with a TVMV protease site. The protein was purified by glutathione-S-transferase affinity chromatography followed by TVMV cleavage, Ni-NTA chromatography, and finally size exclusion chromatography.
The NCI Diversity Set II was obtained from the NCI in 96-well trays from the NIH Molecular Libraries Program and stored as 10 mM stocks in DMSO. An initial manual screen was conducted using the previously described p-nitrophenylphosphate assay and mouse Eya3(223–510) in a reaction mixture containing 20 mM MES pH 6, 2 mM MgCl2, 125 μM inhibitor, 3.4 mM para-nitrophenol phosphate (pNPP) and 0.01 μg/µL enzyme.
(§1) Compounds were dissolved in DMSO and diluted as needed. […] Reactions were incubated at 30°C for 30 minutes and quenched with 100 mM EDTA pH 10. IC50 values were then calculated directly from regression curves using PRISM. All reported values are the mean of two independent experiments.

PTP1B = target: T2, PTP1B (Homo sapiens, UniProt P18031); assay: pNPP hydrolysis by PTP1B; type: biochemical; conditions: substrate pNPP
T2 construct: made in house
T2 sequence (P18031 1-435): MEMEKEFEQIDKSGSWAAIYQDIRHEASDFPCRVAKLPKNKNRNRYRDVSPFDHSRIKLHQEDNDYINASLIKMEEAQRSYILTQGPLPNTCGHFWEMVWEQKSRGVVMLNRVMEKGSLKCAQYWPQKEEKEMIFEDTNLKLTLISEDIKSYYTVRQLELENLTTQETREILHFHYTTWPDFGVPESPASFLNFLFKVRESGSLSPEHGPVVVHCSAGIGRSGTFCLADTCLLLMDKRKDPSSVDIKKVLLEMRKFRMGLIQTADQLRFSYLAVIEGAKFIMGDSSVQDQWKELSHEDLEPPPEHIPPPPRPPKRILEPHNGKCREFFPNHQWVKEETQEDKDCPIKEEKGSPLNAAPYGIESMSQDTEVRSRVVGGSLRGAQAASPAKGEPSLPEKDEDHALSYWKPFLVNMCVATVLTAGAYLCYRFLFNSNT
Method: The catalytic domain of human Eyes Absent 2 was similarly sub-cloned as a poly-histidine fusion construct in the vector pDEST-527. Fusion protein was purified by Ni-NTA chromatography and followed by size-exclusion chromatography over a Superdex-75 column. The relative purity of protein samples was determined using SDS-PAGE. PTP1B was purified as described previously.
as §1

MCF10A-EYA2 cells = assay: Transwell migration of MCF10A cells over-expressing EYA2; type: cell-based; conditions: for effect on migration of MCF10A(EYA2) cells: 7.5 μM
Method: (§2) Human umbilical vein endothelial cells (HUVECs) were purchased from Lonza (Walkersville, MD) and maintained in the endothelial cell growth medium (PromoCell, Heidelberg, Germany), under a 5% CO2 atmosphere. MCF10A cells from ATCC were stably transfected with either pcDNA 3.2/V5-DEST (vector control), V5-EYA2 or V5-EYA2(mut). Transwell migration experiments were performed as previously described.

HUVECs = assay: HUVEC transwell migration; type: cell-based, human; conditions: 5 μM
Method: as §2

mouse aortic rings = assay: Mouse aortic ring assay (ex vivo sprouting angiogenesis, VEGF-stimulated); conditions: 5 μM, 10 days
Method: The preparation of rat collagen and the aortic ring assay were carried out as previously described, [50]. Mice were 4 to 6 week old female C57BL/6, and aortic ring explants were cultured at 37°C in a humidified incubator under a 5% CO2 atmosphere.
Each inhibitor was serially diluted (between 0.25 mM and 7.5 mM) to stocks of 1000× the working concentrations in sterile 100% DMSO in order to achieve an equal final concentration of DMSO (0.1% v/v) in all culture conditions. For the experiments, the compounds were diluted in EBM containing 2.5% FBS, penicillin/streptomycin and 20 ng/ml VEGF165 (R&D Systems, Minneapolis, MN). Each compound was applied from the first day of culture over a 10-day period with medium change every two days. In all experiments, the vehicle (DMSO, 0.1%) was used as control. The sprouting density was derived from counting the number of branches per ring, and the extent of angiogenic sprouting was estimated by measuring the total surface area covered by the vessels.

zebrafish embryos = assay: Analysis of zebrafish vasculature, Tg(kdrl:EGFP) embryos; type: in vivo; conditions: exposure from about 5 hpf, analysis at 28–30 hpf
Method: Tg(kdrl:EGFP)^s843 zebrafish line was used for vascular analysis. Embryos were maintained in fish water until the 50% epiboly stage (5.25 hpf) and were transferred into wells of 24-well plate containing the inhibitors in fish water. All incubation was performed at 28.5°C. The analysis for vascular defects was performed at the 28–30 hpf stages, and embryos were imaged using a fluorescence microscope.

[1] = cited from earlier work
[2] = system: urate transporter SLC22A12 (URAT1); parameters: method as in PMID 21272127; conditions: cited from earlier work
CYP2C9 = system: CYP2C9; parameters: method as in PMID 20214587; conditions: cited from earlier work

For `CCc1oc2ccccc2c1C(=O)c1ccc(O)cc1` [Compound 1a, Benzarone], the IC50 (Eya3(ED); substrate pNPP 3.4 mM, pH 6, 30°C, 30 minutes) was 19.2 µM, the IC50 (PTP1B) was > 150 µM and the “reduction of cell motility” value (MCF10A-EYA2 cells; 1 μM (lowest concentration tested), MCF10A-EYA2) was “over 50%”. The “effect on migration of MCF10A(EYA2) cells” value (MCF10A-EYA2 cells) was “significantly inhibited cell migration”, the “effect on HUVEC cell motility” value (HUVECs) was “attenuated HUVEC cell motility” and the “effect on sprouting of aortic rings” value (mouse aortic rings) was “shorter sprouts and significantly lower microvascular density”. The “effect on the developing vasculature” value (zebrafish embryos) was “reduced the number of intersegmental vessels, but were less potent”, the half-life [1] was “about 3 hours” and the “inhibition of URAT1” value [2] was “inhibition of the urate transporter SLC22A12 (URAT1)”. The “inhibition of CYP2C9” value (CYP2C9) was “inhibit CYP2C9”.
In the case of `CCc1oc2ccccc2c1C(=O)c1cc(Br)c(O)c(Br)c1` [Compound 1, Benzbromarone], the “mode of inhibition of Eya3(ED)” value (Eya3(ED); pNPP substrate titration) is reported as “uncompetitive inhibitor”, the IC50 (PTP1B) is reported as 53.8 µM and the “effect on migration of MCF10A(EYA2) cells” value (MCF10A-EYA2 cells) is reported as “significantly inhibited cell migration”. For the same compound, the “effect on HUVEC cell motility” value (HUVECs) was “attenuated HUVEC cell motility”, the “effect on sprouting of aortic rings” value (mouse aortic rings) was “shorter sprouts and significantly lower microvascular density” and the “effect on the developing vasculature” value (zebrafish embryos) was “significant reduction of intersegmental vessels even at the lowest dose tested (0.25 μM)”. For the same compound, the half-life [1] was “about 3 hours”, the “inhibition of URAT1” value [2] was “inhibition of the urate transporter SLC22A12 (URAT1)” and the “inhibition of CYP2C9” value (CYP2C9) was “inhibit CYP2C9”.
